Among the test systems are HCC-2998 colon; UACC-62 melanoma; SF-295 CNS; SK-MEL-28 melanoma; A498 renal; HT29 colon; U251 CNS; HCT-116 colon; COLO 205 colon; K-562 leukemia.
What all share (assay): inhibition of tumour cell growth, NCI panel, 48 h

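Dose response: 5 concentrations. Exposure: 48 h. Format: 96-well plates. Endpoint: linear interpolation; highest concentration if not reached. GI50 marks 50% less growth. TGI marks complete inhibition of growth.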

In the case of `O=c1c2cc(C(F)(F)F)ccc2sc2c(NCCCNCCO)nc3ccccc3c12`, the GI50 was 1.67 µM with HCC-2998 colon; 1.78 µM in the assay with UACC-62 melanoma; 1.81 µM in the assay on SF-295 CNS; 1.87 µM in the assay on SK-MEL-28 melanoma; 1.61 µM in the assay with A498 renal. Moreover, the TGI was 3.29 µM in the assay on HCC-2998 colon; 3.25 µM with UACC-62 melanoma; 3.3 µM with SF-295 CNS; 3.32 µM in the assay with SK-MEL-28 melanoma; 3.06 µM with A498 renal.

Turning to `COC(=O)[C@H](Cc1c[nH]c2ccccc12)NP(=O)(OCCC#N)OCC1OC(n2cc(C)c(=O)[nH]c2=O)CC1N=[N+]=[N-]` (stereo not given in full), the TGI in the assay on HCC-2998 colon, with HT29 colon, with U251 CNS, in the assay on UACC-62 melanoma, in the assay on SF-295 CNS and in the assay on HCT-116 colon was above 100 µM throughout. Moreover, the TGI in the assay with COLO 205 colon and in the assay on K-562 leukemia was above 100 µM in each case.

Turning to `Cc1cc2[nH]c3c(C#N)c(-c4ccccc4)c(N=Nc4ccc(F)cc4)c(=O)n3c2cc1C`, the TGI in the assay with HCC-2998 colon, in the assay with U251 CNS, in the assay on SF-295 CNS, with SK-MEL-28 melanoma, in the assay with A498 renal and in the assay with HCT-116 colon was above 100 µM throughout. Further, in the assay on COLO 205 colon, the TGI is above 100 µM.

Regarding `O=C(NNC(=S)Nc1ccccc1)c1nsc2ccccc12`, the TGI in the assay with HCC-2998 colon is above 100 µM; in the assay on HT29 colon it was above 100 µM; in the assay with U251 CNS it was above 100 µM; with UACC-62 melanoma, 85.7 µM; in the assay on SK-MEL-28 melanoma it was above 100 µM; in the assay on HCT-116 colon it was above 100 µM. For the same compound, the TGI with COLO 205 colon and with K-562 leukemia was above 100 µM throughout.

`Fc1cccc(F)c1C1SCc2nc3cc(Cl)c(Cl)cc3n21` (stereo not given): the TGI in the assay with HCC-2998 colon, in the assay on HT29 colon, with U251 CNS, with UACC-62 melanoma, with SF-295 CNS and in the assay on SK-MEL-28 melanoma was above 100 µM throughout. For the same compound, the TGI in the assay on HCT-116 colon, in the assay on COLO 205 colon and in the assay on K-562 leukemia was above 100 µM throughout.

With `C1=NCCNCCNCCN=Cc2ccc(cc2)OCc2cccc(n2)COc2ccc1cc2`, the TGI with HT29 colon, in the assay with U251 CNS, in the assay with UACC-62 melanoma, in the assay on SF-295 CNS, in the assay on SK-MEL-28 melanoma and with A498 renal was above 100 µM throughout. Further, the TGI in the assay on HCT-116 colon, in the assay on COLO 205 colon and in the assay on K-562 leukemia was above 100 µM in each case.

For the compound `O=C1CCCNn2c(nc3ncccc3c2=O)N1`, the TGI in the assay on HT29 colon, with U251 CNS, with UACC-62 melanoma, in the assay on SF-295 CNS, with A498 renal and in the assay on HCT-116 colon was above 100 µM in each case. The TGI in the assay on COLO 205 colon and with K-562 leukemia was above 100 µM throughout.

In the case of `O=C1COc2cc(N3CCN(c4cccc(C(F)(F)F)c4)CC3)ccc2N1`, the TGI with HCC-2998 colon, in the assay with HT29 colon, in the assay with U251 CNS, in the assay on UACC-62 melanoma, in the assay on SF-295 CNS and with SK-MEL-28 melanoma was above 100 µM in each case. The TGI in the assay with HCT-116 colon, in the assay with COLO 205 colon and in the assay on K-562 leukemia was above 100 µM in each case.

Regarding `FC(F)(F)c1cc(N(C2c3ccccc3C=Cc3ccccc32)P(Cl)Cl)cc(C(F)(F)F)c1`, the TGI was above 100 µM with HT29 colon; 33.8 µM in the assay on U251 CNS; 41.8 µM in the assay with SF-295 CNS; 87.8 µM with SK-MEL-28 melanoma; 56.8 µM in the assay with A498 renal; 40.3 µM in the assay on HCT-116 colon. Further, the TGI with COLO 205 colon was 51.6 µM; with K-562 leukemia, 42.7 µM.

For the compound `O=C(c1ccccc1)c1ccc2nc(-c3c(Cl)c(Cl)c(Cl)c(Cl)c3-c3nnc(-c4ccccc4)o3)[nH]c2c1`, the TGI in the assay with HT29 colon is above 100 µM; with U251 CNS, above 100 µM; in the assay with SF-295 CNS, 73.9 µM; in the assay on SK-MEL-28 melanoma, above 100 µM; in the assay with A498 renal it was 78.4 µM; in the assay on HCT-116 colon it was above 100 µM. The TGI with COLO 205 colon and with K-562 leukemia was above 100 µM throughout.

Turning to `COC(=O)c1ccccc1C1CN=NC12Cc1c(ccc3c1CCC3)C2=O` (stereo not given), the TGI in the assay on HCC-2998 colon, in the assay with HT29 colon, with U251 CNS, in the assay on UACC-62 melanoma, with SF-295 CNS and in the assay on SK-MEL-28 melanoma was above 100 µM each time. Moreover, the TGI with HCT-116 colon, in the assay with COLO 205 colon and in the assay with K-562 leukemia was above 100 µM throughout.

On to `CC(C)(C)OC(=O)N/C(C=O)=C\C1CCCCC1`, for which the TGI with HCC-2998 colon is 37.3 µM; with HT29 colon, 71.6 µM; in the assay on U251 CNS, 40.3 µM; in the assay on UACC-62 melanoma it was 30.7 µM; in the assay on SF-295 CNS, 99.3 µM; with SK-MEL-28 melanoma, above 100 µM. Moreover, the values for the TGI in the assay with HCT-116 colon, in the assay on COLO 205 colon and in the assay on K-562 leukemia were 36 µM, 36.8 µM and 46.2 µM, respectively.

`Cc1ccc(S(=O)(=O)NC(CCC(=O)NNc2ccccc2)C(=O)NNc2ccccc2)cc1` (stereo not given): the TGI in the assay on HT29 colon, in the assay on U251 CNS, with UACC-62 melanoma, with SF-295 CNS, in the assay with A498 renal and in the assay on HCT-116 colon was above 100 µM each time. Further, the TGI in the assay on COLO 205 colon is 54.1 µM; in the assay on K-562 leukemia, above 100 µM.

Turning to `Cc1cc(C)c2c(c1)CC1(Cc3cc(C)c(C)cc3C1=O)C2=O` (stereo not given), the TGI with HCC-2998 colon, in the assay on U251 CNS, in the assay on UACC-62 melanoma, in the assay on SF-295 CNS, in the assay with SK-MEL-28 melanoma and in the assay on A498 renal was above 100 µM in each case. The TGI in the assay on COLO 205 colon and in the assay with K-562 leukemia was above 100 µM each time.

With `Cc1c(CNc2ccc(C(=O)NC(CCCNC(=O)c3ccccc3C(=O)O)C(=O)O)cc2)cnc2nc(N)nc(N)c12` (stereo not given), the GI50 was 0.167 µM in the assay with HCC-2998 colon, 0.00285 µM in the assay with U251 CNS, above 100 µM with A498 renal and 1.72 µM in the assay on COLO 205 colon. Besides, the results for the TGI in the assay with U251 CNS, in the assay on A498 renal and in the assay with COLO 205 colon were above 100 µM, above 100 µM and 4.74 µM, respectively.

The record behind these values is PubChem BioAssay (NCI).
